Data as given in ChEMBL document CHEMBL4507304, “Data for DCP probe TP-021” (2021).

Legend:
[1] = target: Calcium/calmodulin-dependent protein kinase kinase 2 (Homo sapiens) (UniProt Q96RR4); conditions: Compound concentration 1000.0 nM
[2] = target: Tyrosine-protein kinase Fes/Fps (Homo sapiens) (UniProt P07332); conditions: Compound concentration 1000.0 nM
[3] = tested on: Receptor-type tyrosine-protein kinase FLT3 (Homo sapiens), P36888 [K663Q]; conditions: Compound concentration 1000.0 nM
[4] = target: Protein kinase C theta type (Homo sapiens) (UniProt Q04759); conditions: Compound concentration 1000.0 nM
[5] = target: Serine/threonine-protein kinase 35 (Homo sapiens) (UniProt Q8TDR2); conditions: Compound concentration 1000.0 nM
[6] = tested on: Phosphatidylinositol 4,5-bisphosphate 3-kinase catalytic subunit alpha isoform (Homo sapiens), P42336 [C420R]; conditions: Compound concentration 1000.0 nM
[7] = tested on: Tyrosine-protein kinase ABL1 (Homo sapiens), P00519 [F317I]; conditions: Compound concentration 1000.0 nM
[8] = target: Death-associated protein kinase 2 (Homo sapiens) (UniProt Q9UIK4); conditions: Compound concentration 1000.0 nM
[9] = target: Calcium/calmodulin-dependent protein kinase type II subunit beta (Homo sapiens) (UniProt Q13554); conditions: Compound concentration 1000.0 nM
[10] = target: Interleukin-1 receptor-associated kinase 1 (Homo sapiens) (UniProt P51617); conditions: Compound concentration 1000.0 nM
[11] = target: Transient receptor potential cation channel subfamily M member 6 (Homo sapiens) (UniProt Q9BX84); conditions: Compound concentration 1000.0 nM
[12] = target: Non-receptor tyrosine-protein kinase TYK2 (Homo sapiens) (UniProt P29597); conditions: Compound concentration 1000.0 nM
[13] = target: Activin receptor type-2B (Homo sapiens) (UniProt Q13705); conditions: Compound concentration 1000.0 nM
[14] = target: Dual specificity mitogen-activated protein kinase kinase 5 (Homo sapiens) (UniProt Q13163); conditions: Compound concentration 1000.0 nM
[15] = target: D(4) dopamine receptor (Homo sapiens) (UniProt P21917); conditions: Compound concentration 10.0 uM
[16] = target: Phosphatidylinositol 4-kinase beta (Homo sapiens) (UniProt Q9UBF8); conditions: Compound concentration 1000.0 nM
[17] = target: Phosphatidylinositol 3-kinase catalytic subunit type 3 (Homo sapiens) (UniProt Q8NEB9); conditions: Compound concentration 1000.0 nM
[18] = target: Cyclin-dependent kinase 13 (Homo sapiens) (UniProt Q14004); conditions: Compound concentration 1000.0 nM
[19] = target: SRSF protein kinase 1 (Homo sapiens) (UniProt Q96SB4); conditions: Compound concentration 1000.0 nM
[20] = target: Macrophage colony-stimulating factor 1 receptor (Homo sapiens) (UniProt P07333); conditions: Compound concentration 1000.0 nM
[21] = target: Ribosomal protein S6 kinase alpha-5 (Homo sapiens) (UniProt O75582); conditions: Compound concentration 1000.0 nM
[22] = target: Megakaryocyte-associated tyrosine-protein kinase (Homo sapiens) (UniProt P42679); conditions: Compound concentration 1000.0 nM
[23] = target: Serine/threonine-protein kinase NLK (Homo sapiens) (UniProt Q9UBE8); conditions: Compound concentration 1000.0 nM
[24] = target: Ribosomal protein S6 kinase alpha-1 (Homo sapiens) (UniProt Q15418); conditions: Compound concentration 1000.0 nM
[25] = target: Mitogen-activated protein kinase kinase kinase 5 (Homo sapiens) (UniProt Q99683); conditions: Compound concentration 1000.0 nM
[26] = tested on: eIF-2-alpha kinase GCN2 (Homo sapiens), Q9P2K8 [S808G]; conditions: Compound concentration 1000.0 nM
[27] = target: Serine/threonine-protein kinase Nek7 (Homo sapiens) (UniProt Q8TDX7); conditions: Compound concentration 1000.0 nM
[28] = target: Interleukin-1 receptor-associated kinase 3 (Homo sapiens) (UniProt Q9Y616); conditions: Compound concentration 1000.0 nM
[29] = target: Cyclin-dependent kinase 11A (Homo sapiens) (UniProt Q9UQ88); conditions: Compound concentration 1000.0 nM
[30] = tested on: Tyrosine-protein kinase ABL1 (Homo sapiens), P00519 [H396P]; conditions: Compound concentration 1000.0 nM
[31] = target: Leucine-rich repeat serine/threonine-protein kinase 2 (Homo sapiens) (UniProt Q5S007); conditions: Compound concentration 1000.0 nM
[32] = target: Homeodomain-interacting protein kinase 1 (Homo sapiens) (UniProt Q86Z02); conditions: Compound concentration 1000.0 nM
[33] = target: Tyrosine-protein kinase receptor Tie-1 (Homo sapiens) (UniProt P35590); conditions: Compound concentration 1000.0 nM
[34] = target: Mitogen-activated protein kinase kinase kinase 15 (Homo sapiens) (UniProt Q6ZN16); conditions: Compound concentration 1000.0 nM
[35] = target: Tyrosine-protein kinase TXK (Homo sapiens) (UniProt P42681); conditions: Compound concentration 1000.0 nM
[36] = target: Epidermal growth factor receptor (Homo sapiens) (UniProt P00533); conditions: Compound concentration 1000.0 nM
[37] = target: Serine/threonine-protein kinase N2 (Homo sapiens) (UniProt Q16513); conditions: Compound concentration 1000.0 nM
[38] = target: 5-hydroxytryptamine receptor 6 (Homo sapiens) (UniProt P50406); conditions: Compound concentration 10.0 uM
[39] = target: Serine/threonine-protein kinase pim-2 (Homo sapiens) (UniProt Q9P1W9); conditions: Compound concentration 1000.0 nM
[40] = target: 5-hydroxytryptamine receptor 1E (Homo sapiens) (UniProt P28566); conditions: Compound concentration 10.0 uM
[41] = tested on: Phosphatidylinositol 4,5-bisphosphate 3-kinase catalytic subunit alpha isoform (Homo sapiens), P42336 [E545A]; conditions: Compound concentration 1000.0 nM
[42] = target: NUAK family SNF1-like kinase 1 (Homo sapiens) (UniProt O60285); conditions: Compound concentration 1000.0 nM
[43] = target: Mitogen-activated protein kinase kinase kinase 20 (Homo sapiens) (UniProt Q9NYL2); conditions: Compound concentration 1000.0 nM
[44] = target: Tyrosine-protein kinase Tec (Homo sapiens) (UniProt P42680); conditions: Compound concentration 1000.0 nM
[45] = target: Serine/threonine-protein kinase 25 (Homo sapiens) (UniProt O00506); conditions: Compound concentration 1000.0 nM
Chain of Serine/threonine-protein kinase 25 (Homo sapiens) (O00506 whole entry, looked up): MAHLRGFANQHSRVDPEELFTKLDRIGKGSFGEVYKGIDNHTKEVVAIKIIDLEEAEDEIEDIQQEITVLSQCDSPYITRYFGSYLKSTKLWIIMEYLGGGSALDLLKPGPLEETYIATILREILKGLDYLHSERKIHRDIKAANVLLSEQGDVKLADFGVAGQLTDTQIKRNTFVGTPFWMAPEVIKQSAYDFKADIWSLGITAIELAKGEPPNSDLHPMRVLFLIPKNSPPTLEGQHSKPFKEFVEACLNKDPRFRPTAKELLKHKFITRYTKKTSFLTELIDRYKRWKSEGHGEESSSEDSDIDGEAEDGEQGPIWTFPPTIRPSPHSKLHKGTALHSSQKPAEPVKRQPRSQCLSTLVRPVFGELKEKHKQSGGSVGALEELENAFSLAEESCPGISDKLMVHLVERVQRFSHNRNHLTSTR

Chain of Serine/threonine-protein kinase Nek7 (Homo sapiens) (Q8TDX7 whole entry, looked up): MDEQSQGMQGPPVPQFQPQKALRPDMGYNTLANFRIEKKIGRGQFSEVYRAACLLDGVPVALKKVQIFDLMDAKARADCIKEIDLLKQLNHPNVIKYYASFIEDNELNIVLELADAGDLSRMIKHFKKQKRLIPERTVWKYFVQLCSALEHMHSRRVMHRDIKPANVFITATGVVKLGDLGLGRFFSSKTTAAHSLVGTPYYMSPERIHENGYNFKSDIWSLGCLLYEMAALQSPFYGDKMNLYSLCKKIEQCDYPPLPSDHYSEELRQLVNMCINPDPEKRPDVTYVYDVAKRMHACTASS
Chain of SRSF protein kinase 1 (Homo sapiens) (Q96SB4 whole entry): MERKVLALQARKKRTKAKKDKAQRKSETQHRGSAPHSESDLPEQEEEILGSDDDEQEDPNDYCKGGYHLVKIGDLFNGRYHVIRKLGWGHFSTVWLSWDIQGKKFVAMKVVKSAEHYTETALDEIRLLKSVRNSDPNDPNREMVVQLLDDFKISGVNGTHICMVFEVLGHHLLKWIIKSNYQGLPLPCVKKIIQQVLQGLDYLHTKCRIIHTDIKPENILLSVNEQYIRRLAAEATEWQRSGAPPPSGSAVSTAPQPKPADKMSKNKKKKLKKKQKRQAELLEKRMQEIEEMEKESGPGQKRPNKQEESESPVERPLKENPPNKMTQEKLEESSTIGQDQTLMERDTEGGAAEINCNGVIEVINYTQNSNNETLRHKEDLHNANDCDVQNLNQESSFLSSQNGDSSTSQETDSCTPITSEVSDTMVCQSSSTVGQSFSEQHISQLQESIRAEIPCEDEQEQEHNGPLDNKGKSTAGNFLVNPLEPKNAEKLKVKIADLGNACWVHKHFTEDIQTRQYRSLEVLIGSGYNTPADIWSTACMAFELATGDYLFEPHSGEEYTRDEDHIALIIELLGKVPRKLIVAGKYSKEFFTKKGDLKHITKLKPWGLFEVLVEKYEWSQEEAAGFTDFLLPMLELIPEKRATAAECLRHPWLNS
Chain of Ribosomal protein S6 kinase alpha-1 (Homo sapiens) (Q15418 whole entry): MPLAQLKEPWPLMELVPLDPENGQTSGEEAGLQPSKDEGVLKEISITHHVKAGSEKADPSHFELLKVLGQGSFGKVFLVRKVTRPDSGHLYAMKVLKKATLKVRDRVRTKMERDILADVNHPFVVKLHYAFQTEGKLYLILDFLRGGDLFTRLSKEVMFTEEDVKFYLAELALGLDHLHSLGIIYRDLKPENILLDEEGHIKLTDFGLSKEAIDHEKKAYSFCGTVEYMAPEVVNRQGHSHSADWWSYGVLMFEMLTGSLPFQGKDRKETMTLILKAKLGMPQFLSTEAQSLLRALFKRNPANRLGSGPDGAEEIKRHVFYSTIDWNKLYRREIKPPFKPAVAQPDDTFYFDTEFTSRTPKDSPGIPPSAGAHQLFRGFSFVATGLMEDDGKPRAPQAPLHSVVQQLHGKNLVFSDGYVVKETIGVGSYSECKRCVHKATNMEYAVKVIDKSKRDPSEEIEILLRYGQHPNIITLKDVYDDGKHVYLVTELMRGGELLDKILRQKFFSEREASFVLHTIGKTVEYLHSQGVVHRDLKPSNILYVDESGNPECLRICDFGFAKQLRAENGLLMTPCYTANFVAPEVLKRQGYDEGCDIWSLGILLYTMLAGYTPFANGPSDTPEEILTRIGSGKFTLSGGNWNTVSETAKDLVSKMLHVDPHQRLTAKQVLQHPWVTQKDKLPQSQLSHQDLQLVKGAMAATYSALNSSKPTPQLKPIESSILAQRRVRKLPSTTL
Chain of Transient receptor potential cation channel subfamily M member 6 (Homo sapiens) (Q9BX84 whole entry): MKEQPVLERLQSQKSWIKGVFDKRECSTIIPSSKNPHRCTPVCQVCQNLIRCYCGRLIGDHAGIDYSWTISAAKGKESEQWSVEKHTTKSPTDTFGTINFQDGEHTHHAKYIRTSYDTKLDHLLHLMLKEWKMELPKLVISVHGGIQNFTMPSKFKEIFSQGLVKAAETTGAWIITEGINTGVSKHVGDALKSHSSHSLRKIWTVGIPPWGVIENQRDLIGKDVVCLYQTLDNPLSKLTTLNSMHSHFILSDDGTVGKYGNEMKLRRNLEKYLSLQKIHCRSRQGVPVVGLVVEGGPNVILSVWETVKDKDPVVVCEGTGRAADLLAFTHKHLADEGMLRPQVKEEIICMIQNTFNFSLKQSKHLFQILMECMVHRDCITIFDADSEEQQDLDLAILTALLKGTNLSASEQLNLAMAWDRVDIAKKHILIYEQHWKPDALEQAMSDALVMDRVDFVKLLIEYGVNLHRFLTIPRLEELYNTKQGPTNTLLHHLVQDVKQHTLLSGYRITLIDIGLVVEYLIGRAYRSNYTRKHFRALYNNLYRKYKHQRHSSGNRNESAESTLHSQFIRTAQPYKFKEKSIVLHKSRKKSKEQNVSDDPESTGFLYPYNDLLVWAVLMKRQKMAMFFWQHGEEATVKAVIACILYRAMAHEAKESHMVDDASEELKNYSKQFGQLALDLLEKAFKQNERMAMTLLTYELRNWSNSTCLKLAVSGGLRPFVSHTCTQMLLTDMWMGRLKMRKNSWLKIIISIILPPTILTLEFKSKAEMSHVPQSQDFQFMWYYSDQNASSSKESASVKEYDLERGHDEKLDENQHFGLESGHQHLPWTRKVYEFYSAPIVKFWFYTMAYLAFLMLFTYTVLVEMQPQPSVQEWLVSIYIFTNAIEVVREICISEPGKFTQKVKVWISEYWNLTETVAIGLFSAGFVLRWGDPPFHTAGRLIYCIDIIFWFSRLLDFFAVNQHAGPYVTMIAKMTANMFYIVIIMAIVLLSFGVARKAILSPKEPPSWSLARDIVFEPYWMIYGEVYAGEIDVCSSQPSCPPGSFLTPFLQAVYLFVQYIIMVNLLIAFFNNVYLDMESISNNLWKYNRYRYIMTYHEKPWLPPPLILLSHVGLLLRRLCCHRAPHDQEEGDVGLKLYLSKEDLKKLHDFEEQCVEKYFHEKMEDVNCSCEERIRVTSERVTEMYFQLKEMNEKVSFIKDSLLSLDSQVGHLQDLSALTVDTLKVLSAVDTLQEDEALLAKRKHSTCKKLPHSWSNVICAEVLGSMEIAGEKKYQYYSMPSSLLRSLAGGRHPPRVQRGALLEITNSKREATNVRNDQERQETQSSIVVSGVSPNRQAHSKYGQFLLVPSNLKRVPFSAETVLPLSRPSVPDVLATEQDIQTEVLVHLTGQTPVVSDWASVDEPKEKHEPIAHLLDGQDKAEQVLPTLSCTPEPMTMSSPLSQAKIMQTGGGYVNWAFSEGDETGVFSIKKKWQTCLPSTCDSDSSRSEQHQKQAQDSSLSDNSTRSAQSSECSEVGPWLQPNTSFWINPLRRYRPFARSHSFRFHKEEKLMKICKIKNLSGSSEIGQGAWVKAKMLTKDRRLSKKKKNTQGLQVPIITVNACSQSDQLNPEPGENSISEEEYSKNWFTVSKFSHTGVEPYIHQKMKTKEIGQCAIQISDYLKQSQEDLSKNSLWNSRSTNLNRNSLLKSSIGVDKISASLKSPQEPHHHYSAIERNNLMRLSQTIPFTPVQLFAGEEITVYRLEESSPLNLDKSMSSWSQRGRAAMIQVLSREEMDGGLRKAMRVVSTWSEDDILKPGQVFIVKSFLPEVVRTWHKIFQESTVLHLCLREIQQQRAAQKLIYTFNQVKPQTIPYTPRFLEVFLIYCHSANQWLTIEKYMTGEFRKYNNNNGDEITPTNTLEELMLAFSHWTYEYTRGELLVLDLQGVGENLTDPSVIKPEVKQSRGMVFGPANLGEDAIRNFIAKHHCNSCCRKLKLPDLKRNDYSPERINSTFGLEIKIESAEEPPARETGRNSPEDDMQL
Chain of Megakaryocyte-associated tyrosine-protein kinase (Homo sapiens) (P42679 whole entry): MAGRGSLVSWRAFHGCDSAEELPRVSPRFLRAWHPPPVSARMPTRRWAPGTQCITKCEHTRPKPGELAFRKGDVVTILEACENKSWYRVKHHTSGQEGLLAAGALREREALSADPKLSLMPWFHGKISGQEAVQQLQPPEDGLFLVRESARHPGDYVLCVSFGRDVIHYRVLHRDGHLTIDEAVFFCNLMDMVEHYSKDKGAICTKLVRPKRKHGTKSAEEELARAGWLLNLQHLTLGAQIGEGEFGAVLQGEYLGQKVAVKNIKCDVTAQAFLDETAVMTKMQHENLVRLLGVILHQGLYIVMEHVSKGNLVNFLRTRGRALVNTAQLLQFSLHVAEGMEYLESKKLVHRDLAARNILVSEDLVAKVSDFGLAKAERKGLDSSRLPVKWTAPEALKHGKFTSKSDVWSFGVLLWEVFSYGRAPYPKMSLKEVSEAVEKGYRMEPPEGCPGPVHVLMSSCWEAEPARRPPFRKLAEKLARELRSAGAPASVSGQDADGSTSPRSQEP
Chain of 5-hydroxytryptamine receptor 1E (Homo sapiens) (P28566 whole entry, canonical isoform): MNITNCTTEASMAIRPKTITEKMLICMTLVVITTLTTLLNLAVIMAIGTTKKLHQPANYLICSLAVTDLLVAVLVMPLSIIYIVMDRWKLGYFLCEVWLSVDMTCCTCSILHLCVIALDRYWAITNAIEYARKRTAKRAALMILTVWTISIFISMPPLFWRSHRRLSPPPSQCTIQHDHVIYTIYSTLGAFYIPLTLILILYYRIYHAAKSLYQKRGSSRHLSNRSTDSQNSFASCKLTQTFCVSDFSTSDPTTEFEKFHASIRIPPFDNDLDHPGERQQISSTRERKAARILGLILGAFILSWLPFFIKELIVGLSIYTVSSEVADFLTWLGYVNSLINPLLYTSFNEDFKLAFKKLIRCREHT

N#Cc1ccc(Nc2ccc3[nH]c(=O)[nH]c3c2)c(Cl)c1
inactive: residual activity [1] 91% | residual activity [2] 100% | residual activity [3] 92% | residual activity [4] 90% | residual activity [5] 100% | residual activity [6] 90% | residual activity [7] 92% | residual activity [8] 92% | residual activity [9] 91% | residual activity [10] 100% | residual activity [11] 100% | residual activity [12] 100% | residual activity [13] 81% | residual activity [14] 100% | inhibition [15] -2.02% | residual activity [16] 100% | residual activity [17] 100% | residual activity [18] 100% | residual activity [19] 95% | residual activity [20] 97% | residual activity [21] 100% | residual activity [22] 100% | residual activity [23] 100% | residual activity [24] 93% | residual activity [25] 90% | residual activity [26] 93% | residual activity [27] 100% | residual activity [28] 94% | residual activity [29] 97% | residual activity [30] 95% | residual activity [31] 96% | residual activity [32] 82% | residual activity [33] 91% | residual activity [34] 68% | residual activity [35] 87% | residual activity [36] 100% | residual activity [37] 76% | inhibition [38] -1.18% | residual activity [39] 83% | inhibition [40] 12.6% | residual activity [41] 100% | residual activity [42] 100% | residual activity [43] 100% | residual activity [44] 96% | residual activity [45] 100%

O=C1CCc2cc(Nc3cc(OC4CCOCC4)c([N+](=O)[O-])cc3Cl)ccc2N1
inactive: residual activity [1] 100% | residual activity [2] 100% | residual activity [3] 100% | residual activity [4] 92% | residual activity [5] 100% | residual activity [6] 97% | residual activity [7] 100% | residual activity [8] 79% | residual activity [9] 90% | residual activity [10] 98% | residual activity [11] 100% | residual activity [12] 100% | residual activity [13] 89% | residual activity [14] 100% | inhibition [15] -2.6% | residual activity [16] 100% | residual activity [17] 100% | residual activity [18] 100% | residual activity [19] 73% | residual activity [20] 96% | residual activity [21] 100% | residual activity [22] 100% | residual activity [23] 100% | residual activity [24] 100% | residual activity [25] 84% | residual activity [26] 85% | residual activity [27] 87% | residual activity [28] 98% | residual activity [29] 100% | residual activity [30] 85% | residual activity [31] 72% | residual activity [32] 95% | residual activity [33] 100% | residual activity [34] 78% | residual activity [35] 79% | residual activity [36] 100% | residual activity [37] 100% | inhibition [38] -2.48% | residual activity [39] 84% | inhibition [40] 16.5% | residual activity [41] 100% | residual activity [42] 100% | residual activity [43] 81% | residual activity [44] 82% | residual activity [45] 100%
